What was measured:
Conditions in all cases: labelled compound; 5 mM MgCl2, 50 mM KCl, Tris-HCl pH 8.0, 37 °C
[1] = target: ICE1056Fin (Haemophilus influenzae, UniProt A0A8I2XW01)
[2] = target: RK2 KorB (Escherichia coli, UniProt P07674)
[3] = target: P1 ParB (Punavirus P1, UniProt Q38420)
Sequence of P1 ParB (Q38420 1-333): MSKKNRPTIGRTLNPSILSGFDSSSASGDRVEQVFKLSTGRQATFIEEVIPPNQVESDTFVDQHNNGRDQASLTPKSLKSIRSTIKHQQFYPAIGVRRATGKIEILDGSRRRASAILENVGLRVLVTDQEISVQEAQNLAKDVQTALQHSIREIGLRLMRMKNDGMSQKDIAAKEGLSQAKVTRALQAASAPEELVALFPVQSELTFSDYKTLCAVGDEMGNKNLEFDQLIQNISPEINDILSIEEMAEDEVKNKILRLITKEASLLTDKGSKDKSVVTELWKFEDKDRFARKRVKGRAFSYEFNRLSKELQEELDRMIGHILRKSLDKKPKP

Sequence of ICE1056Fin (A0A8I2XW01 1-185): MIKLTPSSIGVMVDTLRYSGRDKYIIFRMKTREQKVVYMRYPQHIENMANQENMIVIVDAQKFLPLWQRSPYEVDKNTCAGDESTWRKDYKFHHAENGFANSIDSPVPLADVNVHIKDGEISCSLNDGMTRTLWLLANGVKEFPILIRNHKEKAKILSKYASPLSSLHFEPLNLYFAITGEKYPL
Sequence of RK2 KorB (P07674 whole entry): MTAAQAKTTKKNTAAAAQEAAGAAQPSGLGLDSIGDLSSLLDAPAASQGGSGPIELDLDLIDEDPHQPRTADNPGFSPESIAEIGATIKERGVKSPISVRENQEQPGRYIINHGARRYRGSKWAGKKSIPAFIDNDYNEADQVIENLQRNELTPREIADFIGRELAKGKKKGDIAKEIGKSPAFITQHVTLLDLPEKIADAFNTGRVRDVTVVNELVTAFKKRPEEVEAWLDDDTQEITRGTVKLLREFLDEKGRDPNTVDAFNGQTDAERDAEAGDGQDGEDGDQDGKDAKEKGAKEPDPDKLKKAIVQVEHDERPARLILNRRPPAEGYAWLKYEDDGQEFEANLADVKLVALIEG

SMILES: Nc1ncnc2c1ncn2[C@@H]1O[C@H](COP(=O)(O)OP(=O)(O)OP(=O)(O)O)[C@@H](O)[C@H]1O [ATP]
- TLC ATPase assay, γ-phosphate release [1]: ICE1056Fin, P1 ParB and RK2 KorB also exhibited comparable ATPase activity
- TLC ATPase assay, γ-phosphate release [2]: ICE1056Fin, P1 ParB and RK2 KorB also exhibited comparable ATPase activity
- TLC ATPase assay, γ-phosphate release [3]: ICE1056Fin, P1 ParB and RK2 KorB also exhibited comparable ATPase activity
